Results on one molecule are retold here after US10265317B2, “Combination of creatine, an omega-3 fatty acid, and citicoline” (University of Utah Research Foundation, priority 2014, dated 2019).

For test [1], the system named is females between 40-60 years of age. Kind of test: Hamilton Anxiety Rating Scale (HAM-A), clinical study. The test is classed as in vivo, human. To be noted: Visit 2, higher score indicates more severe symptoms. On the procedure: (§1) Approval for the study was obtained from the University of Utah Institutional Review Board (IRB). Informed consent consisted of written assent from participants. The study was conducted under U.S. Food and Drug Administration (FDA) Investigational New Drug Application #104,586. An external Data Safety and Monitoring Board vested with authority to halt the trial was established, and the study was conducted in accordance of the principles of Good Clinical Practice (GCP).
(§2) Participants were recruited through self-referral and IRB-approved advertising. Consecutive patients who met inclusion criteria were enrolled. Inclusion criteria included the following: females between 40-60 years of age. […]
(§3) At each study visit, the following rating scales were administered: the Hamilton Anxiety Rating Scale (HAM A) (Hamilton, 1969) and the Hamilton Depression Rating Scale (HAM D) (Hamilton, 1960), the California Verbal Learning Test (Delis et al., 1987) and the Rey Osterrieth Figure Test (Bennett-Levy, 1984). Adverse events we recorded at each study visit. […]

Test [2] has the same test system. As to the kind of experiment: Hamilton Depression Rating Scale (HAM-D), clinical study. The test is classed as in vivo, human. To be noted: Visit 2, higher score indicates more severe symptoms. On the procedure:
as §1, §2, §3

Test [3] deals with frontal lobe levels of both phosphocreatine and adenosine triphosphate. Particulars: chronic oral administration; cited from earlier work.

For `C[N+](C)(C)CCOP(=O)(O)OP(=O)([O-])OC[C@H]1O[C@@H](n2ccc(N)nc2=O)[C@H](O)[C@@H]1O` [CDP-Choline, cytidine-5′-diphosphocholine], the “HAM-A Mean” value came to 1.80 in test [1] (250 mg CDP-Choline) and 1.35 in test [1] (500 mg CDP-Choline). In addition, the “HAM-D Mean” value was found to be 1.60 in test [2] (250 mg CDP-Choline) and 1.35 in test [2] (500 mg CDP-Choline). The “frontal lobe levels of phosphocreatine and adenosine triphosphate” value in test [3] is given as “increase”.
